Assay results taken from patent US20210277003A1, “OGA INHIBITOR COMPOUNDS” (Janssen Pharmaceutica NV, priority 2018, published 2021).

Key:
[1] = test system: OGA in HEK293 cells inducible for P301L mutant human Tau (isoform 2N4R); assay: OGA cellular assay: immunocytochemical detection of O-GlcNAcylated proteins (CTD110.6 antibody); assay type: cell-based; settings: Homo sapiens, HEK293, 6 h, 6 hours incubation; for Emax: maximum = Thiamet G 200 uM; for EC50: read-out: Cellular hOGA, pEC50 (converted)
In short: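 Cells seeded 2 days ahead in low-glucose assay medium and exposed to compounds for 6 h at 0.2% DMSO, then PFA-fixed and immunostained. Signal is 488 nm intensity from imaging (9 fields/well), with Hoechst nuclei counts as a toxicity check. IC50 from non-linear regression, with 200 uM Thiamet G per plate as maximum inhibition.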

[2] = target: T1, recombinant human Meningioma Expressed Antigen 5 (MGEA5), also referred to as O-GlcNAcase (OGA) (Homo sapiens, UniProt O60502); assay: OGA biochemical assay: inhibition of hydrolysis of fluorescein mono-ß-D-N-Acetyl-Glucosamine (FM-GlcNAc), fluorescence readout; settings: FM-GlcNAc substrate; for Emax: read-out: Enzymatic Emax (%)
T1 construct: Full length OGA enzyme was purchased at OnGene (cat #TP322411); purchased OnGene (so in the source)
T1 sequence (O60502 1-916): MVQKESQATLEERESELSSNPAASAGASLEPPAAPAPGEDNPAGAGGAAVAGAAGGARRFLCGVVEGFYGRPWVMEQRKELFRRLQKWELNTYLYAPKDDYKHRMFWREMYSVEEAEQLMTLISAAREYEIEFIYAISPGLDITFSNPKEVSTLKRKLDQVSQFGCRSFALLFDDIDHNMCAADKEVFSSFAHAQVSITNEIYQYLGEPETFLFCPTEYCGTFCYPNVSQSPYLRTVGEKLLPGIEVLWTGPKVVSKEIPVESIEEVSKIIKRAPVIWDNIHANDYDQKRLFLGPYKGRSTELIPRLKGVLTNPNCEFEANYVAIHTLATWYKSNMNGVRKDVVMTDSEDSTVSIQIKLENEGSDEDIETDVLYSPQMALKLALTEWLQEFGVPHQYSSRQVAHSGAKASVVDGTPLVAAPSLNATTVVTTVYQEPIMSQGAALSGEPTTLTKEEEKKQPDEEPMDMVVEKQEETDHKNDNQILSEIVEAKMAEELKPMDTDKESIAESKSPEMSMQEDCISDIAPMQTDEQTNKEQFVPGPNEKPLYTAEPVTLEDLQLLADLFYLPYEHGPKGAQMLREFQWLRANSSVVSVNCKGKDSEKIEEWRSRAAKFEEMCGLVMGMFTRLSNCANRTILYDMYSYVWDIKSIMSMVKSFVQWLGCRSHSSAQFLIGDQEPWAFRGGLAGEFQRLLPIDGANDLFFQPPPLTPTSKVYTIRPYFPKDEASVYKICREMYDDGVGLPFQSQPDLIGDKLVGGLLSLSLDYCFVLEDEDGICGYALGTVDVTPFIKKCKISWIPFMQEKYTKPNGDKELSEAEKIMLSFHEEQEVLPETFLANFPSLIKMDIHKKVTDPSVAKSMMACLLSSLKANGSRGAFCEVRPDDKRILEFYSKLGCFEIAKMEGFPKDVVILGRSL
In short: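 Full-length recombinant human OGA (2 nM) was pre-incubated with compound for 60 min, then reacted with 100 uM FM-GlcNAc for 6 h at room temperature in 200 mM citrate/phosphate pH 7.2 with 0.005% Tween-20. Reactions were stopped with pH 11.0 carbonate and fluorescein read at 485/538 nm. IC50 and Hill coefficient came from curve fitting.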

SMILES | Enzymatic Emax (%) [2] [%] | Enzymatic hOGA; pIC50 [2] | Emax [2] [%] | IC50 ([2]; read-out: Enzymatic hOGA, pIC50 (converted)) [nM] | Emax [1] [%] | EC50 [1] [nM]
Clc1cccc(Cl)c1Nc1nccc2c1ccn2CCC1COC1 [Compound 122] | 103.22 | 7.72 |  |  | 84.1 | 263
Cc1cncc(C(C)(C)O)c1Nc1nccc2c1ccn2CC1CCO1 (centres unmarked) [Compound 125] |  | 7.91 | 103 |  | 74.8 | 43.7
Cc1c(F)cnc(C(C)C)c1Nc1nccc2c1ccn2CC1CCO1 (centres unmarked) [Compound 127] |  | 8.75 | 103 |  | 76.7 | 11.5
Cc1ccnc(OC(F)F)c1Nc1nccc2c1ccn2CC(C)(F)F [Compound 132] |  | 7.94 | 99.7 |  | 82.2 | 110
Cc1cc(Cn2ccc3c(Nc4c(C)ccnc4C)nccc32)no1 [Compound 133] |  | 8.16 | 101 |  | 76.1 | 87.1
Cc1ccnc(C(F)F)c1Nc1nccc2c1ccn2CC(C)(F)F [Compound 134] |  | 8.28 | 99.9 |  | 77.5 | 81.3
Cc1ccnc(C)c1Nc1nccc2c1ccn2CC1CCCO1 (centres unmarked) [Compound 137] |  | 7.14 | 99.1 |  | 60.4 | 513
Cc1ccnc(C(C)C)c1Nc1nccc2c1ccn2CC1CCCO1 (centres unmarked) [Compound 138] |  | 8.07 | 103 |  | 66.8 | 74.1
Fc1cc(Cl)c(Nc2nccc3c2ccn3CC2CCOC2)c(Cl)c1 (centres unmarked) [Compound 139] |  | 7.8 | 104 |  | 69.7 | 398
Cc1ccnc(C)c1Nc1nccc2c1ccn2CC1CCOC1 (centres unmarked) [Compound 140] |  | 7.08 | 103 |  | 63.9 | 603
Cc1ccnc(C(C)C)c1Nc1nccc2c1ccn2CC1CCOC1 (centres unmarked) [Compound 141] |  | 7.76 | 103 |  | 74.7 | 107
Cc1cc(OC(F)F)nc(C)c1Nc1nccc2c1ccn2CC1CC(F)(F)C1 [Compound 146] |  | 7.56 | 101 |  | 76.3 | 45.7
Cc1ccnc(C(C)C)c1Nc1nccc2c1ccn2CC(C)(F)F [Compound 147] |  | 8.81 | 98.6 |  | 90.9 | ~4.47
Cc1cc(Cn2ccc3c(Nc4c(Cl)cc(F)cc4Cl)nccc32)no1 [Compound 158] |  | 8.58 | 101 |  | 71 | 63.1
Clc1cccc(Cl)c1Nc1nccc2c1ccn2CC1CCO1 (centres unmarked) [Compound 159] |  | 8.87 | 104 |  | 84 | 20.4
Cc1ccnc(C(C)C)c1Nc1nccc2c1ccn2CC1CCO1 (centres unmarked) [Compound 160] |  | 8.67 | 103 |  | 96 | 8.13
N#Cc1ccc(-n2ccc3c(Nc4c(Cl)cccc4Cl)nccc32)nc1 [Compound 166] |  |  | 101 | 47.9 | 44.1 | 1000

Second part, led by results:

Enzymatic Emax (%) [2] [%] | Enzymatic hOGA; pIC50 [2] | Emax [2] [%] | IC50 ([2]; read-out: Enzymatic hOGA, pIC50 (converted)) [nM] | SMILES | Emax [1] [%] | EC50 [1] [nM]
 | 7.56 | 102 |  | CC[C@@H](O)Cn1ccc2c(Nc3c(C)cc(C#N)cc3Cl)nccc21 [Compound 123a] | 63.8 | 437
 | 7.53 | 99.2 |  | CC[C@H](O)Cn1ccc2c(Nc3c(C)cc(C#N)cc3Cl)nccc21 [Compound 123b] | 71.1 | 100
 | 7.88 | 103 |  | CC[C@@H](O)Cn1ccc2c(Nc3c(C)cc(C(F)(F)F)cc3C)nccc21 [Compound 124a] | 74.7 | 21.9
 | 8.04 | 102 |  | CC[C@H](O)Cn1ccc2c(Nc3c(C)cc(C(F)(F)F)cc3C)nccc21 [Compound 124b] | 76.7 | 27.5
 | 8.67 | 100 |  | Cc1cc(F)cc(C)c1Nc1nccc2c1ccn2CC(C)(F)F [Compound 126] | 87.1 | 10.5
 | 8.58 | 101 |  | Cc1cc(C(F)(F)F)cc(Cl)c1Nc1nccc2c1ccn2CC(C)(F)F [Compound 128] | 90.3 | 12.9
 | 8.59 | 100 |  | Cc1cc(Cl)cc(C(F)(F)F)c1Nc1nccc2c1ccn2CC(C)(F)F [Compound 129] | 104 | 7.41
 | 8.6 | 102 |  | Cc1cc(C(F)(F)F)cc(C)c1Nc1nccc2c1ccn2CC(C)(F)F [Compound 130] | 93.7 | 3.16
 | 8.36 | 102 |  | Cc1cc(C(F)(F)F)nc(C)c1Nc1nccc2c1ccn2CC(C)(F)F [Compound 131] | 78.7 | 15.5
 | 8.64 | 98.8 |  | Cc1cc(C)c(Nc2nccc3c2ccn3CC(C)(F)F)c(C)c1 [Compound 135] | 82.2 | 9.33
 | 7.64 | 101 |  | Fc1cc(Cl)c(Nc2nccc3c2ccn3CC2CCCO2)c(Cl)c1 (centres unmarked) [Compound 136] | 74.9 | 240
 | 7.25 | 100 |  | Cc1ccnc(C)c1Nc1nccc2c1ccn2CC(C)O (centres unmarked) [Compound 144] | 79 | 182
 | 7.79 | 100 |  | CC[C@@H](O)Cn1ccc2c(Nc3c(C)cc(F)cc3C)nccc21 [Compound 145a] | 81.2 | 56.2
 | 8.46 | 102 |  | CC[C@H](O)Cn1ccc2c(Nc3c(C)cc(F)cc3C)nccc21 [Compound 145b] | 85.7 | 26.9
 | 8.89 | 102 |  | Cc1cc(F)cc(C(C)C)c1Nc1nccc2c1ccn2CC(C)(F)F [Compound 148] | 87.5 | ~4.79
 | 8.58 | 101 |  | Cc1cc(OC(F)F)nc(C)c1Nc1nccc2c1ccn2CC(C)(F)F [Compound 149] | 96.4 | 10.7
 | 8.57 | 101 |  | Cc1cc(Cl)cc(C)c1Nc1nccc2c1ccn2CC(C)(F)F [Compound 150] | 82.1 | 5.37
 | 8.61 | 100 |  | Cc1cc(F)cc(Cl)c1Nc1nccc2c1ccn2CC(C)(F)F [Compound 151] | 102 | 10.2
 | 8.52 | 102 |  | Cc1cc(F)c(F)c(C)c1Nc1nccc2c1ccn2CC(C)(F)F [Compound 153] | 74.1 | 20.4
 | 8.67 | 101 |  | Cc1cc(-c2cnn(C)c2)cc(C)c1Nc1nccc2c1ccn2CC(C)(F)F [Compound 154] | 86.2 | 3.47
 | 8 | 101 |  | Cc1cc(F)cc(F)c1Nc1nccc2c1ccn2CC(C)(F)F [Compound 155] | 73.3 | 50.1
 | 8.07 | 102 |  | Cc1cc(C)c(Nc2nccc3c2ccn3CC(C)(F)F)c(OC(F)F)n1 [Compound 156] | 70.9 | 45.7
 | 8.58 | 104 |  | Cc1cc(C(F)(F)F)cc(C(C)C)c1Nc1nccc2c1ccn2CC1CCO1 (centres unmarked) [Compound 161] | 88.8 | 6.76
 | 8.63 | 104 |  | Cc1cc(F)cc(C(C)C)c1Nc1nccc2c1ccn2CC1CCO1 (centres unmarked) [Compound 163] | 90.3 | 4.17
